Here are results for 60 molecules from publication PMC8533149 (Biomolecules, 2021).

For this assay, the system named is HIV-1 LTR-III G-quadruplex (FAM/TAMRA-labeled LTR-III). Briefly: FRET melting assay, LTR-III G4. The note with it: Table S1 primary screening, ligand:ODN 50:1, singlicate. The class given is binding. In outline:
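Melting is followed by FAM fluorescence (ex 495/em 520 nm) while heating at 1 °C/min from 30 to 95 °C. Labelled ODN at 0.5 μM, pre-annealed in 10 mM Li cacodylate, 100 mM KCl, pH 7.4, mixed with ligand at 50:1 (25 μM), or 20:1 and 2:1 for titration. ΔTm is relative to the 0.25% DMSO buffer control.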
Consider `COc1ccc(C=CC2=NC(=Cc3ccncc3)C(=O)N2C)cc1` [N 813], for which the “LTR-III ΔTm” value was 0.6 °C.
The value for `CC1=NC(=Cc2ccc[nH]2)C(=O)N1C` [N 815] was -0.1 °C; that for `O=C1C(=C2N=C3C=CC=CN3C2=O)N=C2C=CC=CN12` [N 817.2] was -0.1 °C; that for `O=C1/C(=C/c2ccncc2)N=C2C=CC=CN12` [N 817] was 0 °C.
Consider `CNC(=O)C(=Cc1ccc(C#N)cc1)N=[N+]=[N-]` [N 830A], for which the “LTR-III ΔTm” value is -0.1 °C.
The value for `CNC(=O)C(=Cc1ccccc1)N=[N+]=[N-]` [N 830b] was -0.2 °C.
In the case of `CNC(=O)C(=Cc1ccc(C#N)cc1)N=P(c1ccccc1)(c1ccccc1)c1ccccc1` [N 831], the “LTR-III ΔTm” value was determined as 0 °C.
The value for `CNC(=O)C(=Cc1ccccc1)N=P(c1ccccc1)(c1ccccc1)c1ccccc1` [N 832] was -0.5 °C.
The value for `CNC(=O)C(=Cc1ccncc1)N=P(c1ccccc1)(c1ccccc1)c1ccccc1` [N 833] was -0.6 °C; that for `CC1=NC(=Cc2ccc(O)cc2O)C(=O)N1C` [N 844.1] was -0.1 °C.
The value for `CN1C(=O)C(=Cc2cc(Br)c(O)c(Br)c2)N=C1C=Cc1ccncc1` [N 848.1] was -1.8 °C; that for `COc1ccc(OC)c(C=C2N=C(C=Cc3cc(Br)c(O)c(Br)c3)N(C)C2=O)c1` [N 851A] was 1.4 °C.
For `COc1ccc(O)c(C=C2N=C(C=Cc3cc(Br)c(O)c(Br)c3)N(C)C2=O)c1` [N 851B], the “LTR-III ΔTm” value stood at 1.2 °C.
As for `CC1=NC(=Cc2cc(F)c(O)c(F)c2)C(=O)N1` [N 853], the “LTR-III ΔTm” value was -0.9 °C.
The value for `CN1C(=O)C(=Cc2ccc(O)cc2O)N=C1C=Cc1cc(Br)c(O)c(Br)c1` [N 855] was 0.4 °C; that for `CN1C(=O)C(=Cc2ccc(O)cc2)N=C1C=Cc1ccc2cc(N(C)C)ccc2c1` [N 861] was 0 °C.
The value for `O=C1NC(/C=C/c2ccncc2)=NC/1=C\c1cc(F)c(O)c(F)c1` [N 863] was 0 °C; that for `COc1cc(O)ccc1C=C1N=C(C)N(C)C1=O` [N 865] was 0.8 °C.
For the molecule `COc1cc(O)ccc1/C=C1N=C(/C=C/c2ccncc2)N(C)C\1=O` [N 871B], the “LTR-III ΔTm” value is 0.4 °C.
The value for `CN1C(=O)C(=Cc2ccc(O)cc2)N=C1C=Cc1cccc(C(F)(F)F)c1` [N 873] was 0.4 °C; that for `CN1C(=O)C(=Cc2ccc(O)cc2)N=C1C=Cc1cc(Cl)nc(Cl)c1` [N 886] was -0.2 °C; that for `CC1=NC(=Cc2cc(Cl)c(O)c(Cl)c2)C(=O)N1C` [N 892] was -1 °C.
In the case of `CN1C(=O)C(=Cc2ccc(O)cc2)N=C1C=Cc1c(F)c(F)c(O)c(F)c1F` [N 893], the “LTR-III ΔTm” value is -0.4 °C.
The value for `CN1C(=O)C(=Cc2ccc(SSc3ccc(C=C4N=C(C=Cc5cc(Br)c(O)c(Br)c5)N(C)C4=O)cc3)cc2)N=C1C=Cc1cc(Br)c(O)c(Br)c1` [N 898] was 0.1 °C.
The value for `CN1C(=O)C(=Cc2cc(Cl)c(O)c(Cl)c2)N=C1C=Cc1ccncc1` [N 901] was 0.4 °C.
The value for `CN1C(=O)C(=Cc2ccc(O)cc2)N=C1C=Cc1cc(Cl)c(O)c(Cl)c1` [N 914] was -0.8 °C; that for `COc1cc(O)ccc1C=C1N=C(C=Cc2cc(Cl)nc(Cl)c2)N(C)C1=O` [N 960b] was 0.7 °C.
Regarding `COc1cc(O)ccc1C=C1N=C(C=Cc2c(F)c(F)nc(F)c2F)N(C)C1=O` [N 967], the “LTR-III ΔTm” value is 0.8 °C.
The value for `COc1cc(O)cc(OC)c1C=C1N=C(C=Cc2c(F)c(F)nc(F)c2F)N(C)C1=O` [N 971] was 0.1 °C; that for `COc1cc(O)cc(OC)c1C=C1N=C(C=Cc2cc(Cl)nc(Cl)c2)N(C)C1=O` [N 973] was 2.3 °C.
The value for `COc1cc(O)cc(OC)c1C=C1N=C(C)N(C)C1=O` [N 976] was 0.5 °C.
The value for `COc1cc(/C=C2N=C(/C=C/c3c(F)c(F)nc(F)c3F)N(C)C\2=O)cc(OC)c1O` [N 980] was 1 °C; that for `CC1=NC(=Cc2ccc(C)o2)C(=O)N1C` [N 1020] was -0.2 °C.
Turning to `CC1=NC(=Cc2cccs2)C(=O)N1C` [N 1021], the “LTR-III ΔTm” value was determined as 0.3 °C.
The value for `COc1c(O)ccc(C=C2N=C(C)N(C)C2=O)c1OC` [N 1027.1] was -0.1 °C.
The value for `COc1cc(/C=C2\N=C(C)N(C)C2=O)c(OC)cc1O` [N 1036] was 0.5 °C.
The value for `COc1cc(O)ccc1/C=C1N=C(/C=C/c2cccs2)N(C)C\1=O` [N 1039] was 1.1 °C; that for `COc1c(O)ccc(/C=C2\N=C(C)N(C)C2=O)c1O` [N 1042] was 1.4 °C; that for `COc1cc(/C=C2N=C(/C=C/c3ccncc3)N(C)C\2=O)c(OC)cc1O` [N 1048] was 1.5 °C.
With `COc1cc(O)ccc1C=C1N=C(C=CN2CCCC2)N(C)C1=O` [N 1118], the “LTR-III ΔTm” value is 3 °C.
The value for `COc1cc(O)ccc1C=C1N=C2C=CC=CN2C1=O` [N 1123] was 0.3 °C; that for `COc1cc(O)ccc1/C=C1\N=C(C(C)=O)N(C)C1=O` [N 1124] was 1.3 °C; that for `COc1cc(O)ccc1C=C1N=C(Cc2ccccc2)N(C)C1=O` [N 1135] was 0 °C.
As for `COc1cc(O)ccc1/C=C1\N=C(C(=O)c2ccccc2)N(C)C1=O` [N 1139], the “LTR-III ΔTm” value was found to be 0.6 °C.
The value for `COc1cc(O)ccc1C=C1N=C(C(=Cc2ccncc2)c2ccccc2)N(C)C1=O` [N 1142] was 0.1 °C.
The value for `CCCCN(CCCC)c1ccc(C=C2N=C(C)N(C)C2=O)cc1` [SA 33] was 0.2 °C; that for `CN1C(=O)C(=Cc2ccc(O)c(F)c2)N=C1c1ccccc1` [SA 49.1] was 0 °C; that for `CC1=NC(=Cc2ccc(O)c(F)c2)C(=O)N1CC(N)=O` [SA 99] was 0.1 °C.
Consider `O=C1CN2C(=O)C(=Cc3ccc(O)cc3)N=C2C(=O)N1` [SA 102], for which the “LTR-III ΔTm” value is 0.2 °C.
The value for `CN1C(=O)CN2C(=O)C(=Cc3ccc(O)cc3)N=C2C1=O` [SA 108] was -0.1 °C; that for `CCOC(=O)CN1C(=O)C(=Cc2cccc([N+](=O)[O-])c2)N=C1C` [SA 111] was -0.1 °C; that for `CCOC(=O)CN1C(=O)C(=Cc2ccc(OC)cc2)N=C1C` [SA 117] was -0.2 °C.
Turning to `CC1=NC(=Cc2cccc([N+](=O)[O-])c2)C(=O)N1CC(N)=O` [SA 128], the “LTR-III ΔTm” value was determined as 0.1 °C.
Turning to `COc1ccc(C=C2N=C3C(=O)NC(=O)CN3C2=O)cc1` [SA 130], the “LTR-III ΔTm” value was 0.4 °C.
The value for `CCOC(=O)CN1C(=O)C(=Cc2ccccc2)N=C1C` [SA 148] was -1.3 °C; that for `CC1=NC(=Cc2ccccc2)C(=O)N1CC(N)=O` [SA 152] was -0.3 °C.
For the molecule `COc1ccc(C=C2N=C(Nc3ccc(Br)cc3)N(C)C2=O)cc1` [SA 158], the “LTR-III ΔTm” value was 0.2 °C.
The value for `COc1ccc(C=C2N=C(Nc3ccc(OC)cc3)N(C)C2=O)cc1` [SA 168] was -0.4 °C; that for `COc1ccc(C=C2N=C(Nc3ccc(C#N)cc3)N(C)C2=O)cc1` [SA 179] was 0.7 °C.
The value for `CC(C)OC(=O)c1noc(=O)c(O)c1-c1ccccc1` [SA 300A] was 0.1 °C.
